Where two headings read alike, the source gives them in different places.
Tests used:
[1] = target: T1, α1A Human Adrenergic Receptor (Homo sapiens, UniProt P25100); assay: Radioligand binding, [3H]prazosin, cloned human α1A adrenergic receptor
T1 construct: The entire coding region of α1A (1719 bp); expressed in transfected cells
T1 sequence (P25100 1-572): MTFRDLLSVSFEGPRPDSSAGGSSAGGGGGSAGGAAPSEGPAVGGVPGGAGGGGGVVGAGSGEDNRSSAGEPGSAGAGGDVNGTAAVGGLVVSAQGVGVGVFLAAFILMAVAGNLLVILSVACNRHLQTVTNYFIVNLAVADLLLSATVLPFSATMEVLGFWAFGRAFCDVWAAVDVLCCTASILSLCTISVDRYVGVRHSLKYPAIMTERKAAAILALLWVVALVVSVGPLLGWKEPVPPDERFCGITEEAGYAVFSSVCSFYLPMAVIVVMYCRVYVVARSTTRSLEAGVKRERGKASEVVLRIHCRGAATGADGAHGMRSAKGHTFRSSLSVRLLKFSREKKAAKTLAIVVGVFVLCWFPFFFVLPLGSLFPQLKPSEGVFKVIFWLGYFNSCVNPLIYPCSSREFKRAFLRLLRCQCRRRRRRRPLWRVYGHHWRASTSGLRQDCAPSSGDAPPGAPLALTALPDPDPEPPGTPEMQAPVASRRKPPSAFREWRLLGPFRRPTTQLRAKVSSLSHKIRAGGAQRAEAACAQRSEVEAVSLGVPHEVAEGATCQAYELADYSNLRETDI
How it was run: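 Filter-bound radioactivity measured [3H]prazosin (0.5 nM) binding to membranes of LM(tk−) cells expressing the human α1A receptor after 20 min at 37° C. Phentolamine at 10 μM set nonspecific binding.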

[2] = target: T2, α1B Human Adrenergic Receptor (Homo sapiens, UniProt P35368); assay: Radioligand binding, [3H]prazosin, cloned human α1B adrenergic receptor; conditions: LM(tk-) cell membranes
T2 construct: The entire coding region of α1B (1563 bp); expressed in transfected cells
T2 sequence (P35368 1-520): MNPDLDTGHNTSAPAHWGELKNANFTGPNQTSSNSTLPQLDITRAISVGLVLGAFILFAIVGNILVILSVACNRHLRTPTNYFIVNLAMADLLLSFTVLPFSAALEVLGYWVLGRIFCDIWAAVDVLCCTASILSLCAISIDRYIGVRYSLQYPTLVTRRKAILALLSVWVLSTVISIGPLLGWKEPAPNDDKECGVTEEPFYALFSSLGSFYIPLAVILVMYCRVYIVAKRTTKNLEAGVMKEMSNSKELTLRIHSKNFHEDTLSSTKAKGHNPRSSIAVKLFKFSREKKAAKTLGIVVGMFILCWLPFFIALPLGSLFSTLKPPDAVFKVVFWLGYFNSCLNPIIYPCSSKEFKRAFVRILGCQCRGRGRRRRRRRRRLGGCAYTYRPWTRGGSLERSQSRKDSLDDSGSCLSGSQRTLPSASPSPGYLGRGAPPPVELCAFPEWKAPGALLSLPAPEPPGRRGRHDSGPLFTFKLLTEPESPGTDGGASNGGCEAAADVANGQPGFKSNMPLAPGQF
How it was run: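 [3H]prazosin (0.5 nM) binding was run for 20 min at 37° C in pH 7.5 Tris/MgCl2/ascorbate buffer on membranes of LM(tk−) cells stably expressing the cloned receptor. Filtration through GF/B ended the reaction; 10 μM phentolamine gave nonspecific binding.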

α2B receptor = target: T3, α2B receptor (Homo sapiens, UniProt P18089); assay: Competition binding, [3H]rauwolscine, human α2B receptor
T3 construct: host or cells: LM(tk-) cells, line L-NGC-α2B
T3 sequence (P18089 1-450): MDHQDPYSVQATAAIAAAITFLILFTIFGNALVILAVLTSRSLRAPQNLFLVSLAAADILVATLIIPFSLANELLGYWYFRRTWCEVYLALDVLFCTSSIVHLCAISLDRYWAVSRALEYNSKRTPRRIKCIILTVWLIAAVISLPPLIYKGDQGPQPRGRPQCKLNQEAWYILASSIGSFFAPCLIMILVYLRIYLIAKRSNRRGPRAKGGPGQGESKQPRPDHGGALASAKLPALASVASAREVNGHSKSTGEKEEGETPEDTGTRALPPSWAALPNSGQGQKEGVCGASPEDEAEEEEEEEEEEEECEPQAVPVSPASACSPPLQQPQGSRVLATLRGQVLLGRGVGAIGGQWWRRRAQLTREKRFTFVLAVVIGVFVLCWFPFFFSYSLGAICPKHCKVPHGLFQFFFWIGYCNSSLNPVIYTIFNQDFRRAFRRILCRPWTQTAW
How it was run: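 Using 25 mM glycylglycine buffer at pH 7.6 (room temperature), membranes from LM(tk−) cells carrying α2A, α2B or α2C were competed against 0.5 nM [3H]rauwolscine to equilibrium. Separation was by GF/B filtration; phentolamine (10 μM) set nonspecific binding.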

[3] = cloned human receptor, mean, read-out: PKi alpha-1 1b (converted)
[4] = [3H]prazosin, cloned human receptor, LM(tk-) cell membranes, mean, read-out: PKi alpha-1 1a (converted)
[5] = [3H]rauwolscine, human receptor, LM(tk-) cell lysates, mean, read-out: PKi alpha-2 2b (converted)
[6] = PKi alpha-1 1a, [3H]prazosin, cloned human α1A receptor, LM(tk-) cell membranes
[7] = PKi alpha-1 1b, cloned human α1B receptor
[8] = PKi alpha-2 2b, [3H]rauwolscine, human α2B receptor, LM(tk-) cells
[9] = cloned human α1B receptor, read-out: PKi alpha-1 1b (converted)

`CC1=C(C(N)=O)C(c2ccc([N+](=O)[O-])cc2)C(C(=O)NCCCN2CCC(C(=O)OCCC#N)(c3ccccc3)CC2)=CN1C` (stereo not drawn) [Example 209, 5-Carboxamido-3-{N-[3-(4-(2-cyanoethoxycarbonyl)-4-phenylpiperidin-1-yl)propyl]}carboxamido-1,4-dihydro-1,6-dimethyl-4-(4-nitrophenyl) pyridine] was tested, and the “PKi alpha-1 1a” value ([1]; [3H]prazosin, cloned human receptor, LM(tk-) cell membranes, mean) was 5.17, the “PKi alpha-1 1b” value ([2]; cloned human receptor, mean) was 5.44 and the “PKi alpha-2 2b” value (α2B receptor; [3H]rauwolscine, human receptor, LM(tk-) cell lysates, mean) was 6.46.
With `CC1=C(C(N)=O)C(c2ccc([N+](=O)[O-])cc2)C(C(=O)NCCCN2CCC(C(=O)O)(c3ccccc3)CC2)=C(C)N1` (stereo not drawn) [Example 210, 5-Carboxamido-3-{N-[3-(4-carboxy-4-phenylpiperidin-1-yl)propyl]}carboxamido-1,4-dihydro-2,6-dimethyl-4-(4-nitrophenyl)pyridine] the Ki ([1]; PKi alpha-1 1a) was 72400 nM, the Ki [2, 3] was 44700 nM and the Ki (α2B receptor; PKi alpha-2 2b) was 23400 nM.
For `CCC1=C(C(=O)NC)C(c2ccc([N+](=O)[O-])cc2)C(C(=O)NCCCN2CCC(c3ccccc3)(c3ccccc3)CC2)=C(COCCN)N1` (stereo not drawn) [Example 225, 2-((2-Aminoethyl)oxy)methyl-6-ethyl-1,4-dihydro-5-N-methylcarboxamido-4-(4-nitro)phenyl-3-(3-(N-(4,4-diphenylpiperidin-1-yl)propyl))carboxamidopyridine], the Ki ([1]; PKi alpha-1 1a) was 1620 nM, the Ki [2, 3] was 501 nM and the Ki (α2B receptor; PKi alpha-2 2b) was 2510 nM.
In the case of `CCC1=C(C(=O)NC)C(c2ccc([N+](=O)[O-])cc2)C(C(=O)NCCCN2CCC(C(=O)OC)(c3ccccc3)CC2)=C(COCCN)N1` (stereo not drawn) [Example 229, 2-((2-Aminoethyl)oxy)methyl-6-ethyl-1,4-dihydro-3-(N-(3-(4-methoxycarbonyl-4-phenylpiperidin-1-yl)propyl))carbo xamido-5-N-methylcarboxamido-4-(4-nitro)phenylpyridine], the Ki [1, 4] is reported as 4170 nM, the Ki [2, 3] is reported as 1380 nM and the Ki (α2B receptor; [5]) is reported as 5370 nM.
Work on `CCNC(=O)C1=C(CC)NC(COCCN)=C(C(=O)NCCCN2CCC(C(=O)OC)(c3ccccc3)CC2)C1c1ccc([N+](=O)[O-])cc1` (stereo not drawn) [Example 233, 2-((2-Aminoethyl)oxy)methyl-6-ethyl-5-N-ethylcarboxamido-1,4-dihydro-3-(N-(3-(4-methoxycarbonyl-4-phenylpiperidin-1-yl)propyl))carboxamido-4-(4-nitro)phenylpyridine] yielded a Ki ([1]; PKi alpha-1 1a) of 4070 nM, a Ki [2, 3] of 1620 nM and a Ki (α2B receptor; PKi alpha-2 2b) of 8710 nM.
`CCC1=C(C(N)=O)C(c2ccc([N+](=O)[O-])cc2)C(C(=O)NCCCN2CCC(C(=O)OC)(c3ccccc3)CC2)=C(COCCN)N1` (stereo not drawn) [Example 234, 2-((2-Aminoethyl)oxy)methyl-5-carboxamido-6-ethyl-1,4-dihydro-3-(N-(3-(4-methoxycarbonyl-4-phenylpiperidin-1-yl)propyl)) carboxamido-4-(4-nitro)phenylpyridine] gave a Ki [1, 4] of 2750 nM, a Ki [2, 3] of 1290 nM and a Ki (α2B receptor; [5]) of 4900 nM.
With `CCC1=C(C(=O)OC)C(c2ccc([N+](=O)[O-])cc2)C(C(=O)NCCCN2CCC(C(=O)OC)(c3ccccc3)CC2)=C(COCCN)N1` (stereo not drawn) [Example 235, 2-((2-Aminoethyl)oxy)methyl-6-ethyl-1,4-dihydro-5-methoxycarbonyl-3-(N-(3-(4-methoxycarbonyl-4-phenylpiperidin-1-yl)propyl))carboxamido-4-(4-nitro)phenylpyridine] the Ki ([1]; PKi alpha-1 1a) was 282 nM, the Ki [2, 3] was 219 nM and the Ki (α2B receptor; PKi alpha-2 2b) was 2950 nM.
Work on `CC(=O)C1=C(C)NC(COCCN)=C(C(=O)NCCCN2CCC(c3ccccc3)(c3ccccc3)CC2)C1c1ccc([N+](=O)[O-])cc1` (stereo not drawn) [Example 237, 5-Acetyl-2-((2-aminoethyl)oxy)methyl-1,4-dihydro-6-methyl-4-(4-nitro)phenyl 3-(N-(3-(4,4-diphenylpiperidin-1-yl)propyl)) carboxamidopyridine] yielded a Ki ([1]; PKi alpha-1 1a, [3H]prazosin, cloned human receptor, LM(tk-) cell membranes, mean) of 380 nM, a Ki ([2]; PKi alpha-1 1b, cloned human receptor, mean) of 200 nM and a Ki (α2B receptor; PKi alpha-2 2b, [3H]rauwolscine, human receptor, LM(tk-) cell lysates, mean) of 851 nM.
With `CC(=O)C1=C(C)NC(COCCN)=C(C(=O)NCCCN2CCC(c3ccccc3)(c3ccccc3)CC2)C1c1ccc2c(c1)OCO2` (stereo not drawn) [Example 239, 5-Acetyl-2-((2-aminoethyl)oxy)methyl-1,4-dihydro-6-methyl-4-(3,4-methylenedioxy)phenyl-3-(N-(3-(4,4-dipheylpiperidin-1-yl)propyl))carboxamidopyridine] the Ki [1, 6] was 275 nM, the Ki [2, 7] was 257 nM and the Ki (α2B receptor; [8]) was 759 nM.
Compound `CCOC(=O)C1(c2ccccc2)CCN(CCCNC(=O)C2=C(COC)NC(CC)=C(C(=O)O)C2c2ccc([N+](=O)[O-])cc2)CC1` (stereo not drawn) [Example 240, 3-(N-3-(4-Ethoxycarbonyl-4-phenylpiperidin-1-yl)propyl)carboxamido-6-ethyl-1,4-dihydro-2-(methyloxy)methyl-4-(4-nitro)phenylpyridine-5-carboxylic Acid] has a Ki ([1]; PKi alpha-1 1a) of 10000 nM, a Ki [2, 9] of 4470 nM and a Ki (α2B receptor; PKi alpha-2 2b) of 6310 nM.
Compound `COC(=O)C1(c2ccccc2)CCN(CCCNC(=O)C2=C(COCCCN)NC(C)=C(C(C)=O)C2c2ccc([N+](=O)[O-])cc2)CC1` (stereo not drawn) [Example 241, 5-Acetyl-2-((3-aminopropyl)oxy)methyl-1,4-dihydro-3-(N-(3-(4-methoxycarbonyl-4-phenylpiperidin-1-yl)propyl))carboxamido-6-methyl-4-(4-nitro)phenylpyridine] has a Ki ([1]; PKi alpha-1 1a) of 1450 nM, a Ki [2, 9] of 490 nM and a Ki (α2B receptor; PKi alpha-2 2b) of 1170 nM.
Work on `CC(=O)C1=C(C)NC(COCCN)=C(C(=O)NCCCN2CCC(c3ccccc3)(c3ccccc3)CC2)C1c1ccc(F)cc1` (stereo not drawn) [Example 242, 5-Acetyl-2-((2-aminoethyl)oxy)methyl-4-(4-fluoro)phenyl-1,4-dihydro-6-methyl-3-(N-(3-(4,4-diphenylpiperidin-1-yl)propyl))carboxamidopyridine] yielded a Ki [1, 6] of 224 nM, a Ki [2, 7] of 83.2 nM and a Ki (α2B receptor; [8]) of 933 nM.
With `CCOC(=O)C1(c2ccccc2)CCN(CCCNC(=O)C2=C(COCC(F)(F)F)NC(C)=C(C(N)=O)C2c2ccc([N+](=O)[O-])cc2)CC1` (stereo not drawn) [Example 243, 5-Carboxamido-3-(N-(3-(4-ethoxycarbonyl-4-phenylpiperidin-1yl)propyl))carboxamido-2-((2,2,2-trifluoroethyl)oxy)methyl-1,4dihydro-6-methyl-4-(4-nitro)phenylpyridine] the Ki ([1]; [3H]prazosin, cloned human α1A receptor, LM(tk-) cell membranes, read-out: PKi alpha-1 1a (converted)) was 1510 nM, the Ki [2, 9] was 759 nM and the Ki (α2B receptor; [3H]rauwolscine, human α2B receptor, LM(tk-) cells, read-out: PKi alpha-2 2b (converted)) was 977 nM.
